From ChEMBL document CHEMBL1201862, “PubChem BioAssay data set” (2004)
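Cultured in 96-well plates, cells were exposed to test compound for 48 hours across five concentrations. The concentration for 50% growth inhibition is given as GI50.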 Active and inactive are the calls of the source. No stated cut-off is given here; in the data, active = GI50 up to about 1.1 µM and inactive = higher.

Experiments:
Assay in all cases: inhibition of tumour cell growth, NCI panel, 48 h
786-0 = tested on: 786-0
SR = tested on: SR
KM12 = tested on: KM12
OVCAR-8 = tested on: OVCAR-8
BT-549 = tested on: BT-549
SW-620 = tested on: SW-620
A498 = tested on: A498
NCI-H226 = tested on: NCI-H226
HT-29 = tested on: HT-29
SF-295 = tested on: SF-295
SK-OV-3 = tested on: SK-OV-3
NCI-H23 = tested on: NCI-H23
HL-60 = tested on: HL-60
ACHN = tested on: ACHN
SF-539 = tested on: SF-539
OVCAR-4 = tested on: OVCAR-4
NCI/ADR-RES = tested on: NCI/ADR-RES
RPMI-8226 = tested on: RPMI-8226
IGROV-1 = tested on: IGROV-1
HCC 2998 = tested on: HCC 2998
Malme-3M = tested on: Malme-3M
MCF7 = tested on: MCF7
UACC-62 = tested on: UACC-62
M14 = tested on: M14
HCT-116 = tested on: HCT-116
MDA-MB-231 = tested on: MDA-MB-231
OVCAR-5 = tested on: OVCAR-5
HOP-62 = tested on: HOP-62
UACC-257 = tested on: UACC-257
MOLT-4 = tested on: MOLT-4
CAKI-1 = tested on: CAKI-1
SK-MEL-5 = tested on: SK-MEL-5
U-251 = tested on: U-251
K562 = tested on: K562
UO-31 = tested on: UO-31
HOP-92 = tested on: HOP-92
TK-10 = tested on: TK-10
A549 = tested on: A549
OVCAR-3 = tested on: OVCAR-3
MDA-N = tested on: MDA-N
PC-3 = tested on: PC-3
NCI-H460 = tested on: NCI-H460
COLO 205 = tested on: COLO 205
EKVX = tested on: EKVX
SN12C = tested on: SN12C
MDA-MB-435 = tested on: MDA-MB-435
SK-MEL-2 = tested on: SK-MEL-2
LOX IMVI = tested on: LOX IMVI
NCI-H522 = tested on: NCI-H522
DU-145 = tested on: DU-145
SNB-19 = tested on: SNB-19
RXF 393 = tested on: RXF 393
HCT-15 = tested on: HCT-15
T47D = tested on: T47D
SK-MEL-28 = tested on: SK-MEL-28
SF-268 = tested on: SF-268
SNB-75 = tested on: SNB-75
CCRF-CEM = tested on: CCRF-CEM

N[C@H]1CCN(c2c(F)cc3c(=O)c(C(=O)O)cn4c3c2Oc2cc3c(ccc5ccccc53)cc2-4)C1
GI50 (786-0): 2.88 µM (inactive) | GI50 (SR): 2.52 µM (inactive) | GI50 (KM12): 3.49 µM (inactive) | GI50 (OVCAR-8): 2.96 µM (inactive) | GI50 (BT-549): 6.46 µM (inactive) | GI50 (SW-620): 3.27 µM (inactive) | GI50 (A498): 3.56 µM (inactive) | GI50 (NCI-H226): 2.58 µM (inactive) | GI50 (HT-29): 3.08 µM (inactive) | GI50 (SF-295): 2.98 µM (inactive) | GI50 (SK-OV-3): 5.61 µM (inactive) | GI50 (NCI-H23): 4.83 µM (inactive) | GI50 (HL-60): 3.79 µM (inactive) | GI50 (ACHN): 2.32 µM (inactive) | GI50 (SF-539): 1.7 µM (inactive) | GI50 (OVCAR-4): 5.25 µM (inactive) | GI50 (NCI/ADR-RES): 8.17 µM (inactive) | GI50 (RPMI-8226): 1.58 µM (inactive) | GI50 (IGROV-1): 2.59 µM (inactive) | GI50 (HCC 2998): 1.99 µM (inactive) | GI50 (Malme-3M): 4.43 µM (inactive) | GI50 (MCF7): 2.63 µM (inactive) | GI50 (UACC-62): 6.14 µM (inactive) | GI50 (M14): 4.68 µM (inactive) | GI50 (HCT-116): 2.87 µM (inactive) | GI50 (MDA-MB-231): 0.014 µM (active) | GI50 (OVCAR-5): 11 µM (inactive) | GI50 (HOP-62): 4.06 µM (inactive) | GI50 (UACC-257): 4.9 µM (inactive) | GI50 (MOLT-4): 1.45 µM (inactive) | GI50 (CAKI-1): 3.6 µM (inactive) | GI50 (SK-MEL-5): 1.87 µM (inactive) | GI50 (U-251): 1.39 µM (inactive) | GI50 (K562): 2.82 µM (inactive) | GI50 (UO-31): 4.79 µM (inactive) | GI50 (HOP-92): 2.59 µM (inactive) | GI50 (TK-10): 4.44 µM (inactive) | GI50 (A549): 3.87 µM (inactive) | GI50 (OVCAR-3): 4.48 µM (inactive) | GI50 (MDA-N): 3.03 µM (inactive) | GI50 (PC-3): 2.17 µM (inactive) | GI50 (NCI-H460): 1.94 µM (inactive) | GI50 (COLO 205): 2.75 µM (inactive) | GI50 (EKVX): 3.65 µM (inactive) | GI50 (SN12C): 3.23 µM (inactive) | GI50 (MDA-MB-435): 3.88 µM (inactive) | GI50 (SK-MEL-2): 2.96 µM (inactive) | GI50 (LOX IMVI): 3.08 µM (inactive) | GI50 (NCI-H522): 4 µM (inactive) | GI50 (DU-145): 4.05 µM (inactive) | GI50 (SNB-19): 5.81 µM (inactive) | GI50 (RXF 393): 6.41 µM (inactive) | GI50 (HCT-15): 3.98 µM

Cc1cnc(Cl)nc1C(C#N)c1nc2ccccc2n1C (stereo not given)
GI50 (786-0): 44.4 µM (inactive) | GI50 (KM12): > 100 µM (inactive) | GI50 (OVCAR-8): 38.6 µM (inactive) | GI50 (BT-549): > 100 µM (inactive) | GI50 (SW-620): > 100 µM (inactive) | GI50 (A498): > 100 µM (inactive) | GI50 (NCI-H226): > 100 µM (inactive) | GI50 (T47D): 84.9 µM (inactive) | GI50 (HT-29): 35.9 µM (inactive) | GI50 (SF-295): > 100 µM (inactive) | GI50 (SK-OV-3): > 100 µM (inactive) | GI50 (NCI-H23): 66.7 µM (inactive) | GI50 (ACHN): 66.8 µM (inactive) | GI50 (SF-539): 31 µM (inactive) | GI50 (OVCAR-4): 49.1 µM (inactive) | GI50 (NCI/ADR-RES): 56.1 µM (inactive) | GI50 (RPMI-8226): 85.9 µM (inactive) | GI50 (IGROV-1): 33.4 µM (inactive) | GI50 (Malme-3M): > 100 µM (inactive) | GI50 (SK-MEL-28): 93.1 µM (inactive) | GI50 (SF-268): 29.9 µM (inactive) | GI50 (M14): > 100 µM (inactive) | GI50 (HCT-116): 23.2 µM (inactive) | GI50 (MDA-MB-231): > 100 µM (inactive) | GI50 (OVCAR-5): 64.3 µM (inactive) | GI50 (HOP-62): 55.7 µM (inactive) | GI50 (UACC-257): > 100 µM (inactive) | GI50 (MOLT-4): > 100 µM (inactive) | GI50 (CAKI-1): 95.3 µM (inactive) | GI50 (SK-MEL-5): > 100 µM (inactive) | GI50 (U-251): 19.5 µM (inactive) | GI50 (UO-31): > 100 µM (inactive) | GI50 (HOP-92): > 100 µM (inactive) | GI50 (TK-10): 36 µM (inactive) | GI50 (A549): 62.5 µM (inactive) | GI50 (OVCAR-3): > 100 µM (inactive) | GI50 (MDA-N): > 100 µM (inactive) | GI50 (NCI-H460): 46.1 µM (inactive) | GI50 (COLO 205): > 100 µM (inactive) | GI50 (EKVX): 6.31 µM (inactive) | GI50 (SN12C): > 100 µM (inactive) | GI50 (MDA-MB-435): > 100 µM (inactive) | GI50 (LOX IMVI): 34.1 µM (inactive) | GI50 (SNB-75): 10.1 µM (inactive) | GI50 (NCI-H522): 15.1 µM (inactive) | GI50 (DU-145): > 100 µM (inactive) | GI50 (SNB-19): 41.6 µM (inactive) | GI50 (RXF 393): 58.9 µM (inactive) | GI50 (HCT-15): > 100 µM

C[N+](C)(C)CCOP(=O)([O-])OCCNC(=O)c1ccc2ccccc2c1
GI50 (786-0): > 100 µM (inactive) | GI50 (SR): > 100 µM (inactive) | GI50 (KM12): > 100 µM (inactive) | GI50 (OVCAR-8): > 100 µM (inactive) | GI50 (BT-549): 2.05 µM (inactive) | GI50 (SW-620): > 100 µM (inactive) | GI50 (NCI-H226): > 100 µM (inactive) | GI50 (T47D): > 100 µM (inactive) | GI50 (HT-29): > 100 µM (inactive) | GI50 (SF-295): > 100 µM (inactive) | GI50 (SK-OV-3): > 100 µM (inactive) | GI50 (NCI-H23): > 100 µM (inactive) | GI50 (CCRF-CEM): > 100 µM (inactive) | GI50 (HL-60): > 100 µM (inactive) | GI50 (ACHN): > 100 µM (inactive) | GI50 (SF-539): > 100 µM (inactive) | GI50 (NCI/ADR-RES): 31.5 µM (inactive) | GI50 (RPMI-8226): > 100 µM (inactive) | GI50 (IGROV-1): > 100 µM (inactive) | GI50 (HCC 2998): > 100 µM (inactive) | GI50 (Malme-3M): > 100 µM (inactive) | GI50 (MCF7): > 100 µM (inactive) | GI50 (SK-MEL-28): > 100 µM (inactive) | GI50 (UACC-62): > 100 µM (inactive) | GI50 (SF-268): > 100 µM (inactive) | GI50 (M14): > 100 µM (inactive) | GI50 (HCT-116): > 100 µM (inactive) | GI50 (MDA-MB-231): > 100 µM (inactive) | GI50 (OVCAR-5): > 100 µM (inactive) | GI50 (HOP-62): > 100 µM (inactive) | GI50 (UACC-257): > 100 µM (inactive) | GI50 (MOLT-4): > 100 µM (inactive) | GI50 (CAKI-1): > 100 µM (inactive) | GI50 (SK-MEL-5): > 100 µM (inactive) | GI50 (U-251): > 100 µM (inactive) | GI50 (K562): > 100 µM (inactive) | GI50 (UO-31): > 100 µM (inactive) | GI50 (TK-10): > 100 µM (inactive) | GI50 (A549): > 100 µM (inactive) | GI50 (OVCAR-3): > 100 µM (inactive) | GI50 (MDA-N): > 100 µM (inactive) | GI50 (PC-3): > 100 µM (inactive) | GI50 (COLO 205): > 100 µM (inactive) | GI50 (EKVX): > 100 µM (inactive) | GI50 (SN12C): > 100 µM (inactive) | GI50 (MDA-MB-435): > 100 µM (inactive) | GI50 (LOX IMVI): > 100 µM (inactive) | GI50 (SNB-75): > 100 µM (inactive) | GI50 (NCI-H522): > 100 µM (inactive) | GI50 (DU-145): > 100 µM (inactive) | GI50 (SNB-19): > 100 µM (inactive) | GI50 (RXF 393): > 100 µM (inactive) | GI50 (HCT-15): > 100 µM
